Assay [1] deals with T1, Polycomb protein EED (Homo sapiens, UniProt O75530). The assay can be described thus: Binding affinity to his-tagged EED (76 to 441 residues) (unknown origin) expressed in Escherichia coli BL21 (DE3) assessed as dissociation constant by SPR analysis. For orientation: SPR reads the build-up and loss of mass on a sensor chip optically.
The target of assay [2] is T1, Polycomb protein EED. The assay is described as follows: Binding affinity to his-tagged EED (76 to 441 residues) (unknown origin) expressed in Escherichia coli BL21 (DE3) using H3K27me3 as substrate assessed as dissociation constant.

T1 sequence (O75530 whole entry, the tested form may be a part): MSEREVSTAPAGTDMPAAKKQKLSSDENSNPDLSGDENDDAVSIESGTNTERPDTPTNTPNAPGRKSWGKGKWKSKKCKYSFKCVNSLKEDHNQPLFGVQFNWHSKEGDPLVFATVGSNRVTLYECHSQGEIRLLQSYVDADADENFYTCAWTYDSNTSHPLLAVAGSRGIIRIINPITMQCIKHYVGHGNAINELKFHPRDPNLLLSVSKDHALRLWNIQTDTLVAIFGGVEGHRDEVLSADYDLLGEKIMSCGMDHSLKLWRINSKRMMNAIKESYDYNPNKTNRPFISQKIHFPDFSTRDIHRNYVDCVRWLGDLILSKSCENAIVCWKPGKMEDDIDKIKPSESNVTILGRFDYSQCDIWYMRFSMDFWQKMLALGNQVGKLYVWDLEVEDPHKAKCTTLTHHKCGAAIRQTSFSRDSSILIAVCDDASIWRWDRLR

With `Fc1ccccc1C1=Cc2ccccc2C2=NCCN12`, the Kd on Polycomb protein EED [1] came to 13.5 µM.
For the molecule `CC(C)(Cc1ccccc1)C1=Cc2ccccc2C2=NCCN12`, the Kd at Polycomb protein EED [2] was 21 µM.
Still for that read-out and setting: the result for `Clc1ccc(C2(C3=Cc4ccccc4C4=NCCN34)CC2)cc1` reads 25 µM.
As to `NC1=NCC(c2cccc(Oc3ccc(Cl)cc3)c2)C1` (centres undefined), the Kd on Polycomb protein EED [1] is around 360 µM.

One may read the Kd as the equilibrium constant for the complex coming apart.

Source of the values: ChEMBL document CHEMBL5360606, “Discovery of New Binders for DCAF1, an Emerging Ligase Target in the Targeted Protein Degradation Field” (ACS Med Chem Lett, 2023).
